{"source": "paper PMC8453745", "about": "“Human Mass Balance and Metabolite Profiling of [^14C]‐Pamiparib, a Poly (ADP‐Ribose) Polymerase Inhibitor, in Patients With Advanced Cancer” (Clinical Pharmacology in Drug Development, 2021)", "key": {"CYP2D6": {"target": "T1, CYP2D6 (Homo sapiens, UniProt P10635)", "T1 construct": "tissue Corning (Woburn, New York); host or cells: pooled human liver microsomes", "T1 sequence (P10635 whole entry)": "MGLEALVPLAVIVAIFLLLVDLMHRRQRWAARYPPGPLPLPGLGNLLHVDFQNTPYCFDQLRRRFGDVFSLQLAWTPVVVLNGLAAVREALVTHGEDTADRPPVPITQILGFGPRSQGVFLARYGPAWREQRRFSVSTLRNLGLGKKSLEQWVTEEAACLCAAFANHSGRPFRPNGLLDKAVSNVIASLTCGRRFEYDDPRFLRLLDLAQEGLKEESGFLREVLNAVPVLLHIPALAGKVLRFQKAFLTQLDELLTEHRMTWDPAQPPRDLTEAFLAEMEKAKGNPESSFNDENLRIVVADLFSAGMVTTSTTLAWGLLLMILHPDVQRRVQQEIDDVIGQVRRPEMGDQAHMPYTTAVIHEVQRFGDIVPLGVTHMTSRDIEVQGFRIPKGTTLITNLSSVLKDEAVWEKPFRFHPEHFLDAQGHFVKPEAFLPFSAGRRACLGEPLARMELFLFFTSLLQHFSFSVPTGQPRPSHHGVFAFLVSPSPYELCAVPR", "assay": "CYP450 phenotyping in HLMs with CYP2D6 inhibitor quinidine", "type": "in vitro ADME", "conditions": "HLM incubation", "experimental": "Metabolic stability in human liver microsomes (HLMs) and cytochrome P450 (CYP450) phenotyping assays were conducted in 3D BioOptima (Suzhou, China) using validated methodology, [13] to determine the intrinsic clearance and enzymes responsible for metabolism of pamiparib. HLMs for microsome stability was from BD Biosciences (Woburn, New York). For phenotyping, HLMs and recombinant P450 (rCYP) were from Corning (Woburn, New York). Pamiparib (1 μM) was incubated with pooled HLM (0.5 mg/mL), NADPH (1 mM), and MgCl2 (3 mM) terminated at 0, 5, 15, 30, 60, and 90 minutes. The intrinsic clearance was calculated as 0.693/(t1/2 × HLM concentration), where t1/2 is the half‐life of pamiparib determined in HLMs. For phenotyping in HLMs, pamiparib (1 μM) was incubated in the absence or presence of isoform‐selective inhibitors: 0.2 μM α‐naphthoflavone for CYP1A2, 2 μM clopidogrel for CYP2B6, 16 μM montelukast for CYP2C8, 10 μM sulfaphenazole for CYP2C9, 30 μM nootkatone for CYP2C19, 2 μM quinidine for CYP2D6, and 1 μM ketoconazole for CYP3A. The following isoform‐selective probe substrates served as positive controls: 40 μM phenacetin for CYP1A2, 100 μM bupropion for CYP2B6, 2 μM amodiaquine for CYP2C8, 5 μM diclofenac for CYP2C9, 40 μM S‐mephenytoin for CYP2C19, 5 μM dextromethorphan for CYP2D6, and 2 μM midazolam for CYP3A4. […] Pamiparib, M1, and M2 were analyzed by LC‐MS/MS."}, "[1]": {"conditions": "cited from earlier work"}, "[2]": {"assay": "plasma pamiparib pharmacokinetics in patients (LC‐MS/MS)", "type": "in vivo, human", "conditions": "for Cmax / half-life: plasma, po", "source_text": "Part 1 of the study included a screening phase of up to 28 days prior to drug administration to assess eligibility. Patients were admitted to the clinical research unit (CRU) at Royal Liverpool University Hospital (Liverpool, UK)/Clatterbridge Cancer Centre NHS Foundation Trust (Bebington, Wirral, UK) on day −1 and received a single dose of 60‐mg/100 μCi [^14C]‐pamiparib orally the morning of day 1. Patients remained in the CRU until completion of assessments on day 7, when discharge criteria of ≈90% of the radioactive dose being recovered or <1% of the radioactive dose being recovered in urine and feces for 2 consecutive 24‐hour collection intervals were met. If discharge criteria were not met by day 7, patients collected 24‐hour excreta samples up to day 14 on an outpatient basis. Part 2 of the study, evaluating the safety/tolerability and antitumor activity of 60 mg twice‐daily pamiparib in patients with advanced and/or metastatic solid tumors, is ongoing and is not included in this report.\nPatients fasted overnight and 2 hours after oral administration of a single 60‐mg dose containing ≈100 μCi (3.7‐3.9 MBq) of [^14C]‐pamiparib with ≈240 mL of room‐temperature water or juice (orange or grape). The residual radioactivity present in each vial postdose was corrected from the dose. The radioactive dose of 100 μCi of [^14C]‐pamiparib provided minimum risk to patients according to the dosimetry calculation from a quantitative whole‐body autoradiography study in male and female Long Evans rats; the dose also provided sufficient signal for total radioactivity counting and quantitative radioprofiling in blood, plasma, and excreta (data on file). Patients were not permitted to lie in the supine position for 2 hours after drug administration, except if required because of an adverse event (AE) and/or study procedure.\nTotal radioactivity was analyzed at Covance Laboratories (Harrogate, North Yorkshire, UK), and metabolite profiling was conducted at Covance Laboratories (Madison, Wisconsin). Determination of pamiparib concentrations in plasma and total radioactivity in plasma and whole blood was performed predose and 0.25, 0.5, 1, 1.5, 2, 2.5, 3, 6, 12, 24, 48, 72, 96, 120, and 144 hours postdose. Pamiparib concentrations in plasma and urine were determined at Covance Laboratories (Salt Lake City, Utah) with validated liquid chromatography‐tandem mass spectrometry (LC‐MS/MS) methods.\nAn aliquot of human plasma (25 μL) containing dipotassium ethylenediaminetetraacetic acid as anticoagulant or urine (25 μL) was added with the internal standard (20.0 μL of 400 ng/mL BGB‐326) in water:ACN (50:50 v/v) followed by the addition of water:ACN (50:50 v/v, 20.0 μL). The plasma samples were centrifugated and vortexed followed by the addition of 200 μL of 5% NH4OH and 100 μL of water. After centrifugation, the supernatant (50 μL) was loaded to Biotage Isolute supported liquid extraction plate (Biotage, Holliston, Massachusetts) and eluted with methyl tert‐butyl ether (700 μL). The eluted samples were dried down at 45°C in TurboVap for 30 minutes and reconstituted in 400 μL of water:MeOH (80:20 v/v), followed by LC‐MS/MS analysis. The urine samples were centrifuged and vortexed followed by the addition of 200 μL of ACN. After centrifugation, 100 μL of the samples was transferred to a plate followed by the addition of 300 μL of water. The samples were centrifugated again before LC‐MS/MS analysis. The LC‐MS/MS instrumentation was the same for plasma and urine analysis including a LEAP autosampler (LEAP Technologies, Chapel Hill, North Carolina), a Shimadzu SCL‐10A controller with LC‐10AD pump (Shimadzu, Columbia, Maryland), and a Sciex API 5000 mass spectrometer (Sciex, Framingham, Massachusetts) equipped with a XBridge Phenyl column (2.1 × 50 mm, 5 μm; Waters, Pleasanton, California). The mobile phase A is 10 mM ammonium formate in water, and mobile phase B is MeOH:ACN (50:50 v/v). […]"}, "PARP activity": {"tested_on": "PARP activity", "parameters": "method as in PMID 33264017", "conditions": "read-out: inhibition of PARP activity in cellular PARylation assay, IC50; cited from earlier work"}, "[3]": {"conditions": "60‐mg single dose, n = 11, ref BGB‐290‐AU‐002, NCT02361723"}, "[4]": {"conditions": "single oral 60 mg/100 μCi, n = 4"}}, "note": "Where “and” joins values, the source holds several entries; their conditions need not be identical. Identical values can stand only once. Like-named read-outs stand apart in the source and are kept apart here."}
{"molecule": "C[C@]12CCCN1CC1=NNC(=O)c3cc(F)cc4[nH]c2c1c34", "note": "[Pamiparib]", "values": [{"measurement": "effect of CYP2D6 inhibitor quinidine on pamiparib metabolism", "setting": "CYP2D6", "value": "minimal effect"}, {"measurement": "AUC0‐inf, geometric mean", "setting": "[1]; [3]", "value": "32 005 ng·h/mL"}, {"measurement": "Cmax, geometric mean", "setting": "[1]; [3]", "value": 1881, "unit": "ng/mL"}, {"measurement": "pharmacokinetic profile (dose linearity)", "setting": "[1]; tested dose range 2.5‐120 mg", "value": "linear"}, {"measurement": "tolerability", "setting": "[1]; up to 60 mg, patients", "value": "generally well tolerated"}, {"measurement": "geometric coefficient of variation of parent AUCs among 4 subjects", "setting": "[2]", "value": "< 22", "unit": "%"}, {"measurement": "AUC", "setting": "[2]; human, oral, 60 mg, as printed in discussion, read-out: AUC0‐t, geometric mean (LC‐MS/MS)", "value": 29200, "unit": "ng·h/mL"}, {"measurement": "Cmax", "setting": "[2]; human, 60 mg, single oral 60 mg/100 μCi, n = 4, read-out: Cmax, arithmetic mean (SD)", "value": 2210, "unit": "ng/mL"}, {"measurement": "Cmax", "setting": "[2]; human, 60 mg, single oral 60 mg/100 μCi, n = 4, read-out: Cmax, geometric mean (CV%)", "value": 2190, "unit": "ng/mL"}, {"measurement": "half-life", "setting": "[2]; human, 60 mg, single oral 60 mg/100 μCi, n = 4, read-out: t1/2, arithmetic mean (SD) (converted)", "value": 29.2, "unit": "h"}, {"measurement": "half-life", "setting": "[2]; human, 60 mg, single oral 60 mg/100 μCi, n = 4, read-out: t1/2, geometric mean (CV%) (converted)", "value": 28.7, "unit": "h"}, {"measurement": "Tmax", "setting": "[2]; human, single oral 60 mg/100 μCi, n = 4, read-out: tmax, median (min, max)", "value": 2, "unit": "h"}, {"measurement": "CL/F, arithmetic mean (SD)", "setting": "[2]; [4]", "value": "2.25 (0.55) L/h"}, {"measurement": "CL/F, geometric mean (CV%)", "setting": "[2]; [4]", "value": "2.21 (23.2) L/h"}, {"measurement": "CL/F, geometric mean (CV%)", "setting": "[2]; single oral 60 mg/100 μCi, n = 4, listed as pamiparib", "value": "≈ 2.2 L/h and 2.21 L/h"}, {"measurement": "IC50", "setting": "PARP activity", "value": 0.2, "unit": "nM"}]}
